Measured values: patent US9549905B2, “Treatment of inflammatory and infectious skin disorders” (The Regents of the University of California, priority 2011, dated 2017)
Where “and” joins values, the source holds several entries; their conditions need not be identical. Equal values may be shown once.

What was measured:
[1] = tested on: IL-12 secretion by primary human monocytes; experiment: Cytokine IL-12 assay in monocytes stimulated with P. acnes sonicate; assay type: cell-based; settings: compared with 1% DMSO / untreated
Description: FIG. 3A. Cytokine IL-12 Assay.
The anti-inflammatory properties of resveratrol, benzoyl peroxide and the combination of resveratrol and benzoyl peroxide are exemplified by the cytokine IL-12 assay. […] To address this, we next investigated the cytotoxic effects of the various treatment groups.
To address this, we next investigated the cytotoxic effects of the various treatment groups.

[2] = tested on: P. acnes; experiment: Transmission electron microscopy of P. acnes; assay type: cell-based, Propionibacterium acnes; settings: 1 mg/mL, 24 hours
Description: FIG. 4A. Electron Microscopy of P. acnes control without stimulus. […] Samples were visualized at 80 kV on a JEOL 100CX electron microscope. Bacteria were magnified according to the scale indicated below the main image, with higher magnification images located in the lower left inset.
This implies cellular lysis and death of the majority of bacterium, leaving only remaining unaffected bacteria to replicate and grow.
Resveratrol induced structural changes in the cell membrane of P. acnes. […] This implies cellular lysis and death of the majority of bacterium, leaving only remaining unaffected bacteria to replicate and grow.

[3] = tested on: primary human monocytes; experiment: MTS cytotoxicity assay; assay type: cell-based; settings: for monocytes killed: 10 μg/mL
Method: FIG. 3B. Cytotoxicity Assay. […] The percentage of cells still viable after 16 hour incubation (compared to 1% DMSO control) were assessed (Y-axis) by measuring absorbance of the sample, which is proportional to the number of viable cells.
The cytotoxicity of resveratrol, benzoyl peroxide, and the combination of resveratrol and benzoyl peroxide was also assessed. (see FIG. 3B) We analyzed the cell viability of human monocytes using the MTS cytotoxicity assay. […] The direct cell cytotoxicity of benzoyl peroxide may explain the decrease in IL-12 activity, more a result of direct cell death, than actual anti-inflammatory properties of benzoyl peroxide.
We analyzed the cell viability of human monocytes using the MTS cytotoxicity assay.

[4] = tested on: Propionibacterium acnes ATCC strain 6919; experiment: Colony Forming Unit (CFU) assay of P. acnes over 10 days; assay type: cell-based; settings: for bactericidal activity in comparison at equal concentration: 75 μg/mL, FIG. 2D; for antimicrobial activity over time (words): CFU assay, irrespective of concentration
Method: FIG. 2A. […] Bacterial growth was assessed in terms of the growth factor of P. acnes (Y-axis), determined by the change in the number of bacteria compared to baseline control (set at 1 on Day 0). Concentrations were obtained over a 10-day period and plotted logarithmically. FIG. 2B. Colony Forming Unit (CFU) assays of P. acnes incubated with Benzoyl Peroxide (BPO). FIG. 2C. […] FIG. 2D. […] Having described the invention in general terms, the following specific example is offered for purpose of illustration and for illustration only, and no intention to limit the invention is to be inferred there from. […] Resveratrol and benzoyl peroxide were obtained from Sigma-Aldrich St. Louis, Mo. […] Propionibacterium acnes ATCC […] strain 6919 was grown anaerobically at 37° C. in Reinforced Clostridial Media (Oxoid) for 3 days and collected in the exponential phase of growth by centrifugation. Bacteria were washed with pH 7 sodium phosphate buffer supplemented by 0.03% Trypticase Soy Media and quantified by reading with a spectrophotometer at 600 nm and applying a conversion of ˜1×10^8 bacteria=1 absorbance unit. […] Samples were incubated anaerobically at 37° C. for intervals of 1, 2, 3, 7, and 10 days and then plated on brucella agar with 5% sheep blood supplemented with hemin and vitamin K (Remel). […] The results were plotted logarithmically as multiples of the initial concentration, which was designated as 1 at Day 0.

[5] = tested on: P. acnes; experiment: P. acnes growth inhibition, 48 hour incubation and plating at different dilutions; assay type: cell-based, Propionibacterium acnes
Method: Serial dilutions of P. acnes plated without treatment provided qualitative comparisons to experimental groups treated with RES. Significant growth inhibition of P. acnes was first noted at 50 μg/mL and was dose dependent. […] (FIG. 2A).

Structure (SMILES): O=C(OOC(=O)c1ccccc1)c1ccccc1 [BPO, Benzoyl Peroxide]
- concentration from which IL-12 secretion was diminished [1]: ≥ 2.5 µg/mL
- structural changes of P. acnes [2]: structurally identical to control
- monocytes killed ([3]; 16 hour incubation, relative to 1% DMSO control): greater than 90%
- lowest concentration toxic to monocytes ([3]; human, 16 h): 5 µg/mL
- fold more bactericidal than RES ([4]; 50 μg/mL, at 24 hours): ~1000 ×
- bactericidal activity in comparison at equal concentration ([4]; 10-day period): short but immediate bactericidal activity
- antimicrobial activity over time (words) [4]: minimal effect on bacterial growth after 24 hours
- antimicrobial activity over time (words) ([4]; listed as benzoyl peroxide): virtually no activity remaining after 48 hours
- lowest dose with bactericidal activity ([4]; data not shown): 25 µg/mL

Structure (SMILES): Oc1ccc(C=Cc2cc(O)cc(O)c2)cc1 [RES, 3,5,4′-trihydroxystilbene]
- concentration from which IL-12 secretion was diminished [1]: ≥ 10 µg/mL
- structural changes of P. acnes [2]: loss of membrane definition due to intramembranous edema and loss of well defined extracellular fimbrial structures
- monocytes killed ([3]; human, 16 h): approximately 35%
- bactericidal activity in comparison at equal concentration ([4]; 10-day period): slow but sustained bactericidal activity
- concentrations with sustained and dose dependent bactericidal effect ([4]; 10-day period, FIG. 2A): 75 µg/mL and 100 µg/mL
- antimicrobial activity over time (words) [4]: slow but sustained antimicrobial response
- growth equivalent to dilution of untreated P. acnes plates ([5]; 50 μg/mL, 48 hours): ~1000 × dilution
- concentration at which significant growth inhibition of P. acnes was first noted ([5]; 48 hours incubation, about 1.33×10^6 bacteria): 50 µg/mL
